# Read-outs that look alike come from different tables or passages of the source.
# Key:
# pneumobacillus = test: Drug sensitivity test (MIC)
# [1] = test system: aspergillus fumigatus, cryptococcus and red trichophyton; test: In vitro antifungal test; assay type: cell-based
# S180 = test: Animal test of tumor restraint; assay type: in vivo
# Lewis lung cancer = test: Animal test of tumor restraint; assay type: in vivo
# C.krusei = test: In vitro antifungal test; assay type: cell-based; settings: Pichia kudriavzevii
# [2] = test system: Staphylococcus epidermidis; test: Comparative MIC experiment, Zicao extract vs Shikonin compounds
# Pseudallescheria boydii = test: In vitro antifungal test; assay type: cell-based; settings: Scedosporium boydii
# [3] = test system: Ascitic tyre liver cancer; test: Animal test of tumor restraint; assay type: in vivo
# mycoplasma pneumoniae = test: Bacteriostatic effect on mycoplasma
# [4] = test system: Gram-positive staphylococcus aureus; test: Drug sensitivity test (MIC)
# bacteroides fragilis = test: Drug sensitivity test (MIC)
# stenotrophomonas bacilli = test: Drug sensitivity test (MIC)
# Serratia marcescens = test: Comparative MIC experiment, Zicao extract vs Shikonin compounds
# candida and cryptococcus = test: In vitro antifungal test; assay type: cell-based
# Candida albicans = test: Comparative MIC experiment, Zicao extract vs Shikonin compounds
# Bacteroid = test: as above; assay type: cell-based
# DHBV = test: Virus restraint in DHBV-infected duck; assay type: in vivo; settings: oral, 100mg/kg twice a day, 10 days
# Helicobacter pylori = test: Drug sensitivity test (MIC)
# dermatophyte = test: In vitro antifungal test; assay type: cell-based
# cryptococcus neoformans = test: In vitro antifungal test; assay type: cell-based
# L1210 = test: Animal test of tumor restraint; assay type: in vivo
# red trichophyton = test: In vitro antifungal test; assay type: cell-based
# W256 = test: Animal test of tumor restraint; assay type: in vivo
# [5] = Gram-positive staphylococcus aureus
# [6] = bacteroid, especially bacteroides fragilis
# [7] = stenotrophomonas bacilli, stated as especially effective, compared with berberine
SMILES,MIC (pneumobacillus),MIC (pneumobacillus; some bacterial strains),Tumor inhibitory rate (S180),Tumor inhibitory rate (Lewis lung cancer),Life prolonged rate [3],MIC (stenotrophomonas bacilli; Stenotrophomonas),MIC (Helicobacter pylori),MIC (dermatophyte),MIC90 (dermatophyte),MIC (mycoplasma pneumoniae; mycoplasma pneumoniae),"MIC [4, 5]",MIC (bacteroides fragilis; [6]),MIC (stenotrophomonas bacilli; [7]),also measured
CC(C)=CCC(OC(=O)C=C(C)C)C1=CC(=O)c2c(O)ccc(O)c2C1=O (stereo not drawn),0.391 to 6.25 µg/mL,12.5 to 50 µg/mL,9.63%,42.8%,113.4%,0.391 to 0.781 µg/mL,0.391 to 0.781 µg/mL,4.16 to 8.32 µg/mL,4.16 µg/mL,,,,,MIC [1]: 3.06 to 250 µg/mL; MIC (C.krusei): 8.32 to 16.6 µg/mL; MIC [2]: 0.391 µg/mL; MIC (Pseudallescheria boydii): 4.16 to 8.32 µg/mL; MIC (mycoplasma pneumoniae; Mycoplasma): 2 µg/mL; MIC ([4]; Staphylococcus aureus): 0.391 to 12.5 µg/mL; MIC (bacteroides fragilis; Bacteroides fragilis): 0.391 to 6.25 µg/mL; MIC (Serratia marcescens): 0.781 µg/mL; MIC (candida and cryptococcus): 2.08 to 33.3 µg/mL; MIC90 (candida and cryptococcus): 33.3 µg/mL; MIC (Candida albicans): 3.91 µg/mL; MIC (Bacteroid): 0.391 µg/mL; toxic reaction (DHBV): without toxic reaction
CC(=O)O[C@H](CC=C(C)C)C1=CC(=O)c2c(O)ccc(O)c2C1=O [Acetylshikonin],0.391-6.25 ì g/ml,12.5-50 ì g/ml,35.7%,52.6%,112.6%,,0.391 - 0.781 ì g/ml,,,7.819 ì g/ml,0.391-12.5 ì g/ml,0.391-6.25 ì g/ml,0.391-0.781 ì g/ml,MIC (cryptococcus neoformans): 3.906 ¦Ìg/ml; Life prolonged rate (L1210): 128%; Tumor inhibitory rate [3]: 47.8%; MIC (red trichophyton): 0.9062- 62.5 ¦Ìg/ml; Tumor inhibitory rate (W256): 77%
CC(C)=CC[C@@H](O)C1=CC(=O)c2c(O)ccc(O)c2C1=O [Shikonin],0.391-6.25 ì g/ml,12.5-50 ì g/ml,,,130.8%,,0.391 - 0.781 ì g/ml,,,3.751 ì g/ml,0.391-12.5 ì g/ml,0.391-6.25 ì g/ml,0.391-0.781 ì g/ml,
"COc1ccc2cc3[n+](cc2c1OC)CCc1cc2c(cc1-3)OCO2 [berberine, reference compound]",,,,,,8 to 32 µg/mL,,,,,,,,
"OC(Cn1cncn1)(Cn1cncn1)c1ccc(F)cc1F [fluconazole, reference compound]",,,,,,,,32 to 64 µg/mL,64 µg/mL,,,,,
